Earlier results on one substance are cited in publication PMC11272189, “PNA5, A Novel Mas Receptor Agonist, Improves Neurovascular and Blood-Brain-Barrier Function in a Mouse Model of Vascular Cognitive Impairment and Dementia” (Aging and Disease, 2024).

The data set has as its system healthy control mice. Particulars: daily injections at 1mg/kg/day. Here is the method: All use of animals in this study conformed to the guidelines approved by the Institutional Animal Care and Use Committee at the University of Arizona and in accordance with the National Institutes of Health Guidelines for the Care and Use of Laboratory Animals. Both the number of animals used, and their suffering were minimized. The number of animals needed for each experiment was determined using a G*Power analysis. Importantly for the present study, we have shown in previously published studies that treatment of healthy control mice with daily injections of PNA5 or the native peptide ...

On to “Angiotensin-(1-7) (DRVYIHP; Angiotensin 1-7; UniProt P01019 25-31, looked up) [Ang-(1-7), native peptide]”, for which the “effect on heart function, cognitive function or circulating cytokines” value is “no effect”.
